In ChEMBL document CHEMBL1201862, “PubChem BioAssay data set” (2004):
The source made the active and inactive calls.

Experiments:
[1] = target: T1, Orexin/Hypocretin receptor type 1 (Homo sapiens, UniProt O43613); assay: Homogeneous Time Resolved Fluorescence (HTRF)-based cell-based high throughput dose response assay for antagonists of the orexin 1 receptor (OX1R; HCRTR1). [Related pubchem assays (depositor defined):AID434989, AID435008, AID463079, AID485270, AID492963, AID492964, AID492965, AID493232, AID504717, AID504718]; format: functional
T1 sequence (O43613 whole entry): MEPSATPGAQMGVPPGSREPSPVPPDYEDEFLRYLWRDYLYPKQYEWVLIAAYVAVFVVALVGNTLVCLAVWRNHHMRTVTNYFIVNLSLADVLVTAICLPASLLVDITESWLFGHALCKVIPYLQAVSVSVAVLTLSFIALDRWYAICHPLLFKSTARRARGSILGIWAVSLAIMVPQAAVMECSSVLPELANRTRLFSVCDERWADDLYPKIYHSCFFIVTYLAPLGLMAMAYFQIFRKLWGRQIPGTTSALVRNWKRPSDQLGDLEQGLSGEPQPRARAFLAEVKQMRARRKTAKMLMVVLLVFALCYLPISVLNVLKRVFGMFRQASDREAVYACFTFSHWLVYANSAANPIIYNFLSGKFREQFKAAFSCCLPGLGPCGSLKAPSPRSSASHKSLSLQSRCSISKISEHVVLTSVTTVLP

[2] = microbe, parasite or virus in culture; format: functional; details: Mycobacterium tuberculosis
Orexin receptor type 2 [3] = target: T2, Orexin receptor type 2 (Homo sapiens, UniProt O43614); assay: Counterscreen assay for antagonists of the orexin 1 receptor (OX1R; HCRTR1): Fluorescence-based cell-based dose response assay for antagonists of the orexin 2 receptor (OX2R; HCRTR2), run by assay provider.; format: functional
T2 sequence (O43614 whole entry): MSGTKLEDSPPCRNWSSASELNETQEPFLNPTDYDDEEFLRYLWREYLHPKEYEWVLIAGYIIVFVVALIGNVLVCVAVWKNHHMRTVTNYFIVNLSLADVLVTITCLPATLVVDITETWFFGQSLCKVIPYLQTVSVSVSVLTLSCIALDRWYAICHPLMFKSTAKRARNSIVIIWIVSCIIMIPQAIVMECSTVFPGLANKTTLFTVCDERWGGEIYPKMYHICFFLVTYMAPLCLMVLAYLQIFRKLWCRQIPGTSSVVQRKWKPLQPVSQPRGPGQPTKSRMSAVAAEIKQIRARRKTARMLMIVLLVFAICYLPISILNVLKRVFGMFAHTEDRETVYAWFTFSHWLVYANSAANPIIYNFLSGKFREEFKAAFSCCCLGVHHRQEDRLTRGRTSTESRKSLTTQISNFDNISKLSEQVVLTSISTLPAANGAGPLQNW

[4] = (§1) Counterscreen for antagonists of the orexin 1 receptor (OX1R; HCRTR1): Fluorescence-based cell-based high throughput dose response assay to identify antagonists of the parental CHO cell line. [Related pubchem assays (depositor defined):AID434989, AID435008, AID463079, AID485270, AID492963, AID492964, AID492965, AID493232, AID504699, AID504701]; format: functional
Orexin receptor type 2 [5] = target: T2, Orexin receptor type 2; assay: Counterscreen assay for antagonists of the orexin 1 receptor (OX1R; HCRTR1): Homogeneous Time Resolved Fluorescence (HTRF)-based cell-based dose response assay for antagonists of the orexin 2 receptor (OX2R; HCRTR2), run by assay provider.; format: functional
[6] = target: T1, Orexin/Hypocretin receptor type 1; assay: Fluorescence-based cell-based high throughput dose response assay for antagonists of the orexin 1 receptor (OX1R; HCRTR1). [Related pubchem assays (depositor defined):AID434989, AID435008, AID463079, AID485270, AID492963, AID492964, AID492965, AID493232, AID504717, AID504718]; format: functional
CHO-K1 = assay: as §1, with “Homogeneous time resolved fluorescence (HTRF)-based” for “Fluorescence-based”, “cell-based” for “cell-based high throughput”, “CHO-K1” for “CHO”; format: functional; details: Cricetulus griseus;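 note: potency for inhibition of ATP-stimulated IP1 production as antagonists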
[7] = target: T3, Endoribonuclease toxin MazF (Escherichia coli K-12, UniProt P0AE70); assay: MazF endoribonuclease activators, SAR follow-up, biochemical, fluorescence, single-stranded RNA substrate (AID 588603); format: functional
T3 sequence (P0AE70 whole entry): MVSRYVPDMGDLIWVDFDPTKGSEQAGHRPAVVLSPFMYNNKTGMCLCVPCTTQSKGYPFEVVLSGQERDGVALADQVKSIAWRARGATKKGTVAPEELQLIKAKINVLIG

[8] = target: T3, Endoribonuclease toxin MazF; assay: fluorescent RNA oligo signal without MazF, dose response, counter-screen for MazEF activator project, biochemical, fluorescence, single-stranded RNase substrate (AID 588502); format: functional
[9] = target: T3, Endoribonuclease toxin MazF; assay: SAR analysis of small molecule activators of the MazEF TA System via a fluorescence-based single-stranded RNase assay counterscreen. [Related pubchem assays (depositor defined):AID504720, AID504743]; format: functional
MEF = assay: SAR analysis of small molecule cytotoxicity of MazEF TA System activators in embryonic fibroblast (MEF) cells. [Related pubchem assays (depositor defined):AID504720, AID504743]; format: functional; details: Mus musculus
[10] = target: T3, Endoribonuclease toxin MazF; assay: MazF toxin RNase activators, dose response, biochemical, fluorescence, single-stranded RNA substrate, uHTS hits (AID 588481); format: functional
Candida albicans [11] = assay: growth inhibition of resistant C. albicans, dose response, CaCi-8 strain, fluconazole, dry powder, set 4 (AID 488950); format: functional, organism-based
Candida albicans [12] = assay: reversal of fluconazole resistance in C. albicans, dose response, CaCi-2 strain, Alamar Blue, dry powder, set 3 (AID 488907); format: functional, organism-based
Candida albicans [13] = assay: growth inhibition of azole-resistant C. albicans, dose response, CaCi-8 strain, Alamar Blue, dry powder, set 3 (AID 488905); format: functional, organism-based
Candida albicans [14] = assay: fluconazole resistance reversal in C. albicans, dose response, CaCi-2 strain, Alamar Blue, dry powder, set 4 (AID 488943); format: functional, organism-based
Candida albicans [15] = assay: Candida albicans growth inhibition, agent alone, dose response, counter-screen for reversing antifungal drug resistance, CaCi-2 strain, no fluconazole, dry powder, set 4 (AID 488932); format: functional, organism-based
Phospholipase D2 = Phospholipase D2 (Homo sapiens, UniProt O14939); assay: PLD2 inhibitor potency in cells, dose response (AID 602147); format: functional;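 note: cellular assay in HEK293 cells overexpressing GFP-tagged PLD2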
Sequence of Phospholipase D2 (O14939 whole entry): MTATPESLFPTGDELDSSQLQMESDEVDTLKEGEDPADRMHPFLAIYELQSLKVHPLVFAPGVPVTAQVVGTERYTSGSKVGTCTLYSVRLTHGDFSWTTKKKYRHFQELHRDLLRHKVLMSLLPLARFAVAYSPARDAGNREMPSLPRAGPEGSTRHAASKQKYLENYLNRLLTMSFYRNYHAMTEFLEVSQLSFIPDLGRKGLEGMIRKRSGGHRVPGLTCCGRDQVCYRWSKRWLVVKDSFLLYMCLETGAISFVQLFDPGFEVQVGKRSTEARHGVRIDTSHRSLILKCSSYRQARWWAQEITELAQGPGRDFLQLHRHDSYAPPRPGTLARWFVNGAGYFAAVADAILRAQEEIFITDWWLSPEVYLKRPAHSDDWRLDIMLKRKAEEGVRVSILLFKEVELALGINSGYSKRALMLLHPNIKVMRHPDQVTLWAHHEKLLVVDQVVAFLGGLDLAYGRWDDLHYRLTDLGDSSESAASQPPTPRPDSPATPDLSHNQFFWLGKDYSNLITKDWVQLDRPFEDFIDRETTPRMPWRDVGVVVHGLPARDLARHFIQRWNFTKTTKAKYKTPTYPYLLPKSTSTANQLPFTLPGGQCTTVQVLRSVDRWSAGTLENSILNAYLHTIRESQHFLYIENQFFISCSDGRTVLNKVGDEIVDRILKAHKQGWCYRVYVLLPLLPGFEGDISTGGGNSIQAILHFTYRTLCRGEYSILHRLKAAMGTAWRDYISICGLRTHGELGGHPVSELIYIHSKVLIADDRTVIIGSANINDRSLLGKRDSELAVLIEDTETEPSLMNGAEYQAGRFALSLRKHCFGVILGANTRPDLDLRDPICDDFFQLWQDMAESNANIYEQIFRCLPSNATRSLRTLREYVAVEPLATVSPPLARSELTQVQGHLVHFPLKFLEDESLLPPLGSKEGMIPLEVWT

Phospholipase D1 = Phospholipase D1 (Homo sapiens, UniProt Q13393); assay: PLD1 inhibitor potency in cells, dose response (AID 602151); format: functional;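 note: cellular PLD1 assay in Calu-1 cells stimulated with PMA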
Sequence of Phospholipase D1 (Q13393 whole entry): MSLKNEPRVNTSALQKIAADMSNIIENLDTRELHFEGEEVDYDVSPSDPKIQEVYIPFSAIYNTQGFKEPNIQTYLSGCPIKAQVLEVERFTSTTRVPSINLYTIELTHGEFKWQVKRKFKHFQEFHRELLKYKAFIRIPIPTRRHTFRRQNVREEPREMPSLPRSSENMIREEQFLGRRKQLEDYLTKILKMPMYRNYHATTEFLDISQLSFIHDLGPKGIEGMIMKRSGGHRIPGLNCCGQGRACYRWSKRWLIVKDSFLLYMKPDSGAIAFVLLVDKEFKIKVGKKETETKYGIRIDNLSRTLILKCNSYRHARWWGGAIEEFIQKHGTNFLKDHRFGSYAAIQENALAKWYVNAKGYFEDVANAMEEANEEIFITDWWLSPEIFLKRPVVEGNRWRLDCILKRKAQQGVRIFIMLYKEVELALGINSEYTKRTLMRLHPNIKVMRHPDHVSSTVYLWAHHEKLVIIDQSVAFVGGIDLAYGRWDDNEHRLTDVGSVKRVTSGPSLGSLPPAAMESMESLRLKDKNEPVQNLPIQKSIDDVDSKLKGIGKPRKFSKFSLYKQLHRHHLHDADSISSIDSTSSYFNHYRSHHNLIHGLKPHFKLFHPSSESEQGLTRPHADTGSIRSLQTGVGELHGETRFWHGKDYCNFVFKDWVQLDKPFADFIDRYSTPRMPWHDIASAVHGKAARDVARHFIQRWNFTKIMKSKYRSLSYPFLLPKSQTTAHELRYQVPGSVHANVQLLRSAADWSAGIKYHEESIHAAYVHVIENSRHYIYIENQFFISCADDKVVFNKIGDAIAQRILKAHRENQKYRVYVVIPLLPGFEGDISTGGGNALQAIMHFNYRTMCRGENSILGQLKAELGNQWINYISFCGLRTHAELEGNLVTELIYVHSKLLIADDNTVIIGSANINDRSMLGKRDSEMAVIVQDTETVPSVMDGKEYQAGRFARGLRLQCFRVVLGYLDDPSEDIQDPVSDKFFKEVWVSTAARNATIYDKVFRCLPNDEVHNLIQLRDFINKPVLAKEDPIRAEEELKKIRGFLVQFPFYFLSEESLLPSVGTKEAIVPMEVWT

OCC1(Cc2cccc(Cl)c2)CCCN(Cc2ccc3cc(F)ccc3n2)C1 (centres undefined)
IC50 [1]: 6.33 µM (active) | CC50 [2]: > 40 µM (active) | IC50 (Orexin receptor type 2 [3]): 6.7 µM (active) | IC50 [4]: 31.4 µM (inactive) | IC50 (Orexin receptor type 2 [5]): 25.1 µM (inactive) | IC50 [6]: > 5.53 µM (active) | IC50 (CHO-K1): > 66.2 µM (inactive)

CCC(C)NC(=O)c1ccc(CNS(=O)(=O)c2ccc3c(c2)C(C)(C)C(=O)N3C)cc1 (centres undefined)
EC50 [7]: 21.8 µM (inactive) | EC50 [8]: > 99 µM (inactive) | EC50 [9]: > 99 µM (inactive) | CC50 (MEF): > 99 µM (inactive) | EC50 [10]: 15.9 µM (active)

O=C(c1ccc(Cl)cc1)N1CCN(c2nccs2)CC1
AC50 (Candida albicans [11]): 3.77 µM (active) | AC50 (Candida albicans [12]): 0.555 µM (active) | AC50 (Candida albicans [13]): 20 µM (active) | AC50 (Candida albicans [14]): 3.24 µM (active) | AC50 (Candida albicans [15]): 195 µM (active)

O=C(NCCN1CCC(n2c(=O)[nH]c3ccccc32)CC1)c1cc2ccccc2c2ccccc12
IC50 (Phospholipase D2): 0.42 µM (active) | IC50 (Phospholipase D1): 0.016 µM (active)
